US10759788B2, “Pharmaceutical uses of pyridine carboxamide derivatives” (Jiangsu Hengrui Medicine Co., Ltd., priority 2014, dated 2020)
Entries after “also recorded” stand apart in the source; their conditions may differ.

Key:
SD rats = assay: Diuretic efficacy of ROMK inhibitors in SD rats; assay type: in vivo; details: 0.03 and 0.1 mg/kg i.g. once, after urine collection
Description: The diuretic efficacy of compound 1 and positive control drug of ROMK inhibitor on SD rats was evaluated.
Male SD rats were purchased from SINO-BRITSH SIPPR/BK LAB. ANIMAL LTD., CO (Shanghai, China, Certificate No. 2008001647752, License SCXK (Shanghai) 2013-0016). The rats were 120-130 g, and fed at 5/cage, in a 12/12 hours light/dark cycle regulation, at a constant temperature of 23±1° C., humidity of 50-60%, and free access to water and food. The male SD rats were acclimated to this condition for 7 days before their use in the diuresis experiment.
The experiment was carried out according to the method disclosed in PCT Patent Application Publication WO2010129379A1. After adaptive feeding, the rats were placed in metabolism cages and fasted overnight. The rats were weighed and randomly divided into the following groups: blank control group, compound 1 tested drug 0.03 mg/kg group and 0.1 mg/kg group, and the positive control group 0.03 mg/kg and group 0.1 mg/kg, with 10 rats for each group. Each rat was intragastrically administered each compound (ig, 1 ml/kg). The rats in the blank control group were fed with the corresponding solvent. After intragastric administration, the rats were placed in the normal cage. After 30 min, 25 ml/kg normal saline was given. Rats were put into the metabolic cages, and fasting for food and water began inmediately. The total urine volume in 4 h was collected and measured. The urinary sodium and urinary potassium excretion in 4 h were also measured. The orbital serum was collected after the collection of urine to test the serum sodium and serum potassium concentrations.
The experimental data were expressed as mean±standard deviation (S.D.). The data was statistically compared using the t test of excel.

[1] = Solubility observed when preparing the drugs for the diuresis experiment; assay type: physicochemical; details: preparation of the dosing liquid, observation in words
Excerpt: In this experiment, the solubility of the test compound I was very good. There was no delamination phenomenon. […] After fully grinding, the solubility improved. […] Moreover, the effect was dose-dependent for each dose of the test compound I and the positive control drug.

Row | serum sodium (SD rats) | serum potassium (SD rats; listed as Compound I) | solubility [1] | SMILES | serum potassium (SD rats)
1 | changed a little | no effect | very good | COc1cc(C(=O)NC2CCN(C[C@H](O)c3ccc4c(c3C)COC4=O)CC2)ncc1C#N [Example 1, (R)-5-cyano-N-(1-(2-hydroxy-2-(4-methyl-1-oxo-1,3-dihydroisobenzofuran-5-yl)ethyl)piperidin-4-yl)-4-methoxypicolinamide] | changed a little
2 | changed a little |  | poor solubility | Cc1cc(C(=O)NC2CCN(C[C@H](O)c3ccc4c(c3C)COC4=O)CC2)ncc1C#N [positive control drug] | changed a little; also recorded: no effect
